Measured values published in ChEMBL document CHEMBL3797029, “Purinylpyridinylamino-based DFG-in/αC-helix-out B-Raf inhibitors: Applying mutant versus wild-type B-Raf selectivity indices for compound profiling” (Bioorg Med Chem, 2016).

Columns and labels:
[1] = molecular target: MAP kinase-activated protein kinase 2 (Homo sapiens) (UniProt P49137); assay: Inhibition of partial length wild type human MAPKAPK2 expressed in bacterial system assessed as enzyme activity at 1 uM relative to control; parameters: scale not given: the % may be the effect or the level left
Sequence of MAP kinase-activated protein kinase 2 (Homo sapiens) (P49137 whole entry, looked up): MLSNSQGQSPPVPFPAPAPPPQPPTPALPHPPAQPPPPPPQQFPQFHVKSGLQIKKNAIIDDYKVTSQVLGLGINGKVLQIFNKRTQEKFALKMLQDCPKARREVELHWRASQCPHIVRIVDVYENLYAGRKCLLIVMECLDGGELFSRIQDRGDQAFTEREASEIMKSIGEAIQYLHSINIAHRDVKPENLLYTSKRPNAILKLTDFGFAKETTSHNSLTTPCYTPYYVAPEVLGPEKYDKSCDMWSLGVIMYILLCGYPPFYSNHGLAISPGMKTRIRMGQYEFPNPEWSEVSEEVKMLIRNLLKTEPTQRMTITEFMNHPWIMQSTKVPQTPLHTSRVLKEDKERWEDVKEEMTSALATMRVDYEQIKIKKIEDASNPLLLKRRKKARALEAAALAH

[2] = molecular target: Serine/threonine-protein kinase B-raf (Homo sapiens, UniProt P15056, V600E); assay: Inhibition of B-Raf V600E mutant (unknown origin) assessed as MEK1 phosphorylation using MEK1-Avitag as substrate after 1 hr by HTRF assay
Sequence of Serine/threonine-protein kinase B-raf (P15056 2-766 V600E limits assumed): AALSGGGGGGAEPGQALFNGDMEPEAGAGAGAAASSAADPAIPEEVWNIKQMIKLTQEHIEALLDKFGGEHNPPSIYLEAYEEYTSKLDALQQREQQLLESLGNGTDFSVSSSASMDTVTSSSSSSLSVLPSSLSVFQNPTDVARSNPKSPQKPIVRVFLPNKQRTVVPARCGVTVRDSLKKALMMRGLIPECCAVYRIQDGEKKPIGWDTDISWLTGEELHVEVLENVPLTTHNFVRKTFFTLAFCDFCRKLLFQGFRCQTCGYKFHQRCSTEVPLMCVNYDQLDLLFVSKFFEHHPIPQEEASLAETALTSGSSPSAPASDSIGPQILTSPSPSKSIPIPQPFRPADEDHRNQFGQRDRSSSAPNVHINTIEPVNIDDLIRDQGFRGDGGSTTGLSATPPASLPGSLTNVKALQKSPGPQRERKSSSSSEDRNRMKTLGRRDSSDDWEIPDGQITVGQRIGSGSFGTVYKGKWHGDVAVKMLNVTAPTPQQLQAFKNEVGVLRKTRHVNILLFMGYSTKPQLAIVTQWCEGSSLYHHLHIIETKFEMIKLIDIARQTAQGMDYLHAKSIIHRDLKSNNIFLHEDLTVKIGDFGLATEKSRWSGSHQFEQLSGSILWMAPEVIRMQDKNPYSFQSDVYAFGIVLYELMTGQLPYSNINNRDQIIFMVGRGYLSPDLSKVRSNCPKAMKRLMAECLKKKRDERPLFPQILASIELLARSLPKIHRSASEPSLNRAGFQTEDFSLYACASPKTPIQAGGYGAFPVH

[3] = tested on: cAMP-dependent protein kinase catalytic subunit alpha; assay: Inhibition of partial length wild type human PKACalpha expressed in bacterial system assessed as enzyme activity at 1 uM relative to control; parameters: scale not given: the % may be the effect or the level left
[4] = molecular target: Dual specificity tyrosine-phosphorylation-regulated kinase 1A (Homo sapiens) (UniProt Q13627); assay: Inhibition of partial length wild type human DYRK1A expressed in mammalian system assessed as enzyme activity at 1 uM relative to control; parameters: scale not given: the % may be the effect or the level left
[5] = molecular target: Serine/threonine-protein kinase TAO2 (Homo sapiens) (UniProt Q9UL54); assay: Inhibition of partial length wild type human TAOK2 expressed in mammalian system assessed as enzyme activity at 1 uM relative to control; parameters: scale not given: the % may be the effect or the level left
Sequence of Serine/threonine-protein kinase TAO2 (Homo sapiens) (Q9UL54 whole entry): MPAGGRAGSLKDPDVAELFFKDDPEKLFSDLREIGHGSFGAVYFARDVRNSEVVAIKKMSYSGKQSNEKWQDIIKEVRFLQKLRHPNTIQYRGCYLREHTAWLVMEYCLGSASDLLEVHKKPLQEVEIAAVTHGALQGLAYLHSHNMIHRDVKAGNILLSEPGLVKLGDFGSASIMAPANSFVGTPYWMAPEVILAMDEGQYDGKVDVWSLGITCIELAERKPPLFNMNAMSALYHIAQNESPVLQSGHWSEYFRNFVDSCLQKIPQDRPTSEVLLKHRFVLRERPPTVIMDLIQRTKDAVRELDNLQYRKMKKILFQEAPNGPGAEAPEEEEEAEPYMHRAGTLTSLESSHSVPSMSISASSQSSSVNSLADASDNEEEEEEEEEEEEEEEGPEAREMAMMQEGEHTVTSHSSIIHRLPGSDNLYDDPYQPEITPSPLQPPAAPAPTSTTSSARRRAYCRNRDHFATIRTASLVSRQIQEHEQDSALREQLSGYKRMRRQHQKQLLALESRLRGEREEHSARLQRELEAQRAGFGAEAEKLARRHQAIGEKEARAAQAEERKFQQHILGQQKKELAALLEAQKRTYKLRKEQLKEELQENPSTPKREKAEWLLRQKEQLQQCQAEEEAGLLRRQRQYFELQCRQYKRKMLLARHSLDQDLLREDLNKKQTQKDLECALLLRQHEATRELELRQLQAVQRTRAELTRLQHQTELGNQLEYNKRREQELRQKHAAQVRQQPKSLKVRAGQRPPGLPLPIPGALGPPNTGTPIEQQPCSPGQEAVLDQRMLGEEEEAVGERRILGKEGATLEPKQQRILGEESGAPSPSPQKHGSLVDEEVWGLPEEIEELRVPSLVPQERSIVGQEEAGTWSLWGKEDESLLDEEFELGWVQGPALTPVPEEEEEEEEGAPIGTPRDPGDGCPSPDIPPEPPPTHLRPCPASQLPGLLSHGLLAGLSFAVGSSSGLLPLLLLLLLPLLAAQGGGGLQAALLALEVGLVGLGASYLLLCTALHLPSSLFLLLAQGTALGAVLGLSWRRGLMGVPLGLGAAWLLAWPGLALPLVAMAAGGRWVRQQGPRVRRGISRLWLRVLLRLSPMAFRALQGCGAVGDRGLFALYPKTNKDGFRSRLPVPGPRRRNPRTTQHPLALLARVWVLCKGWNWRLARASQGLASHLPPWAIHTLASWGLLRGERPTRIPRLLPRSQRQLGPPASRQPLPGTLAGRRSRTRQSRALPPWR

[6] = molecular target: Dual specificity mitogen-activated protein kinase kinase 5 (Homo sapiens) (UniProt Q13163); assay: Inhibition of partial length wild type human MEK5 expressed in mammalian system assessed as enzyme activity at 1 uM relative to control; parameters: scale not given: the % may be the effect or the level left
Sequence of Dual specificity mitogen-activated protein kinase kinase 5 (Homo sapiens) (Q13163 whole entry): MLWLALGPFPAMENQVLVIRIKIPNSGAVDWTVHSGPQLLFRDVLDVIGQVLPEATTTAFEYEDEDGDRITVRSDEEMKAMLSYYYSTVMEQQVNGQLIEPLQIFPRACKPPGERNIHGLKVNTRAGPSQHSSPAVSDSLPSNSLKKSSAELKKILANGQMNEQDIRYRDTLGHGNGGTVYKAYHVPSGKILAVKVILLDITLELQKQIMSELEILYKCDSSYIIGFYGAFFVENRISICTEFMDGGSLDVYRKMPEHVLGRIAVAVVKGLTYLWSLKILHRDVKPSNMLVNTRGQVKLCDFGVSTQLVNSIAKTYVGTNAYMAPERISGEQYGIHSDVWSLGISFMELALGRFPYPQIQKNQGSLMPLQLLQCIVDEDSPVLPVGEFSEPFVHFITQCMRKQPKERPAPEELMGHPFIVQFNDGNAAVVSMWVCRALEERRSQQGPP

[7] = molecular target: MAP kinase-interacting serine/threonine-protein kinase 1 (Homo sapiens) (UniProt Q9BUB5); assay: Inhibition of full length wild type human MKNK1 expressed in mammalian system assessed as enzyme activity at 1 uM relative to control; parameters: scale not given: the % may be the effect or the level left
Sequence of MAP kinase-interacting serine/threonine-protein kinase 1 (Homo sapiens) (Q9BUB5 whole entry, looked up): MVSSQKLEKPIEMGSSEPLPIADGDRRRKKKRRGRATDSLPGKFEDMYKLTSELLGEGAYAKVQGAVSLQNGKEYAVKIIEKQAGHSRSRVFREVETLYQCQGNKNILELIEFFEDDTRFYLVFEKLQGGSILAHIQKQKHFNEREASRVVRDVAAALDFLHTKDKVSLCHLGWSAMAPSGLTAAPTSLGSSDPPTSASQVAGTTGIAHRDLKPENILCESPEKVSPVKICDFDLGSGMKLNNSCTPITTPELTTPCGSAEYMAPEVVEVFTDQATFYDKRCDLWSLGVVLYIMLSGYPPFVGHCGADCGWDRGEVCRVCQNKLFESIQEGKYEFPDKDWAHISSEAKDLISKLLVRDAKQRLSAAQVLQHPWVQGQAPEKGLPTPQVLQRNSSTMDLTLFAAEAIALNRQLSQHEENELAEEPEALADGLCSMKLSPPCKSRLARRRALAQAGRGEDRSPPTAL

[8] = molecular target: Tyrosine-protein kinase Fyn (Homo sapiens) (UniProt P06241); assay: Inhibition of partial length wild type human FYN expressed in bacterial system assessed as enzyme activity at 1 uM relative to control; parameters: scale not given: the % may be the effect or the level left
Sequence of Tyrosine-protein kinase Fyn (Homo sapiens) (P06241 2-537 limits assumed): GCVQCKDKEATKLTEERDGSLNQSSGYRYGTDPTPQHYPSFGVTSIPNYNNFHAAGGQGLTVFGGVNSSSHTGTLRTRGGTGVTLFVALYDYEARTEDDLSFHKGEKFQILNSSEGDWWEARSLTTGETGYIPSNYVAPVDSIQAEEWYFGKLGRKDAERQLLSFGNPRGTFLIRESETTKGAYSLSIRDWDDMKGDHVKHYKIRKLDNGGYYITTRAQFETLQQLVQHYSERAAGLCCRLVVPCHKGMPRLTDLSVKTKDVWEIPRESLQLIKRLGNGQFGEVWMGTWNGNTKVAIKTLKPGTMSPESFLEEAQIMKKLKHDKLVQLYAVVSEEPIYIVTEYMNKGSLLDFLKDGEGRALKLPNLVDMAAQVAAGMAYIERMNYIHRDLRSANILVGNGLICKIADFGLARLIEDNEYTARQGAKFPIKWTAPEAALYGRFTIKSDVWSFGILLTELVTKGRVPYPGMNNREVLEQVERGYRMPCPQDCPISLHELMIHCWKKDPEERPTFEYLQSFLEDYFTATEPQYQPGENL

## CN(C)S(=O)(=O)Nc1ccc(F)c(Nc2ncccc2-c2ncnc3[nH]cnc23)c1F
[1]
  Activity: 83%
[2]
  IC50: 8 nM
[3]
  Activity: 94%
[4]
  Activity: 96%
[5]
  Activity: 94%
[6]
  Activity: 0.9%
[7]
  Activity: 77%
[8]
  Activity: 64%
